Laboratory results reported in patent US20230398110A1, “COMPOSITIONS AND METHODS FOR TREATING NON-ALCOHOLIC STEATOHEPATITIS” (ASCENTAGE PHARMA (SUZHOU) CO., LTD., priority 2020, published 2023).

How the values were obtained:
[1] = tested on: rats with DEN-HFD-CHOL induced non-alcoholic steatohepatitis; experiment: DEN-HFD-CHOL induced NASH rat model, liver histology (NAS score, fibrosis); format: in vivo; conditions: 42 days; for NAS score (FIG. 3B) / ballooning (FIG. 3B) / steatosis, lobular inflammation and hepatocellular ballooning (HE-staining of liver tissue, FIG. 3A): Compound 1 10 and 30 mg/kg, GFT505 30 mg/kg
Text: Male SD rats, with an age of 10 days, were purchased from Vital River Co., Ltd (Beijing).
The rats were given a one-time intraperitoneal injection of diethylnitrosamine (DEN) two weeks after birth, and continued breast milk feeding for two weeks.
After four weeks, a total of 56 male rats were selected and divided into 7 groups according to animal weight. The rats were started on a high-fat, high-cholesterol diet (HFD-CHOL), with a feeding cycle of 12 weeks. Before intraperitoneal injection of DEN, 5 male rats were randomly selected for parallel feeding as a control cohort, which were fed a standard diet and not injected with DEN.
After 7 weeks of HFD-CHOL diet feeding, the animals were randomized and treatment with vehicle or the indicated compound was started. The test article administration and the animal numbers in each group are shown in the following experimental design Table 5.
The body weight of animals was measured at the day of the last administration (the end of the test). After the animal were fasted for 6 hours, all animals were euthanatized to collect blood and liver samples for biochemical and histological analysis.
Liver tissue from animals in each group were analyzed for NAS scores, the unweighted sum of the steatosis (0-3), lobular inflammation (0-3) and hepatocellular ballooning (0-2) scores, after HE-staining, and analyzed for liver fibrosis score (0-4) after Sirius red staining.
Liver tissue from animals in each group were analyzed for NAS scores using the methods disclosed above in Example 16. Specifically, the scores assessed were: • 1) the unweighted sum of the steatosis (0-3); • 2) lobular inflammation (0-3); • 3) hepatocellular ballooning (0-2); and • 4) liver fibrosis score (0-4), after Sirius red staining.
(§1) Prism, version 6, (GraphPad Software Inc., San Diego, CA) was used for all statistical analysis and for graphic presentation.
After drug treatment for 42 days, animals were euthanatized to collect liver samples for pathological analysis.

Mcl-1 = Mcl-1 (Homo sapiens, UniProt Q07820); experiment: FP saturation binding of fluorescent probe to Mcl-1; conditions: 2 nM probe, read-out: Kd of Flu-BID to Mcl-1
Sequence of Mcl-1 (Q07820 whole entry): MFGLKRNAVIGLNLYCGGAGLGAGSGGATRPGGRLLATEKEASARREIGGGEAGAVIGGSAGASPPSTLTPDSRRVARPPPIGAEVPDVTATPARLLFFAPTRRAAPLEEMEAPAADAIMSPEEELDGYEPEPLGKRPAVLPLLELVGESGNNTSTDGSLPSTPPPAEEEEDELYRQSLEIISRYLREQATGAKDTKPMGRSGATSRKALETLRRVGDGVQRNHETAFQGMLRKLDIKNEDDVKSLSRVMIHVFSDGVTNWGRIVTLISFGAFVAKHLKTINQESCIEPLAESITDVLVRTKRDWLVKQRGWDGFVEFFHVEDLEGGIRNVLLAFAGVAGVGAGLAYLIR
Procedure: Fluorescence polarization values were measured using an Infinite M-1000 plate reader (Tecan U.S., Research Triangle Park, N.C.) in Microfluor 96-well, black, round-bottom plates (Thermo Scientific). […] Plates were mixed and incubated at room temperature for 1 hour with gentle shaking to assure equilibrium. […] Equilibrium dissociation constants (Kd) were then calculated by fitting the sigmoidal dose-dependent FP increases as a function of protein concentrations using Graphpad Prism 5.0 software (Graphpad Software, San Diego, Calif.).

[2] = tested on: C57BL/6J mice induced with high-fat diet (HFD) and CCl4; experiment: HFD/CCl4 NASH mouse model, liver histology (NAS score, fibrosis); format: in vivo
Procedure: Male C57BL/6J mice with an age of 18 weeks were purchased from GemPharmatech Co., Ltd (Nanjing, Jiangsu). Mice were first fed with high-fat diet (HFD) for 11 weeks to induced obesity. Carbon tetrachloride (25% CCl4, 0.5 μl/g) was then intraperitoneally injected twice weekly for 4 consecutive weeks, to induce liver damages, leading to inflammation, cell death and fibrosis. The day of the first carbon tetrachloride injection was dated as day 0. At day 7, the animals were randomized and treatment started. The test article administration and the animal numbers in each group are shown in the following experimental design Table 3.
All animals were euthanatized at day 28 to collect blood and liver samples for biochemical and histological analysis.
Liver tissue from animals in each group were analyzed for NAS scores.
Specifically, the scores assessed were: • 1) the unweighted sum of the steatosis (0-3); • 2) lobular inflammation (0-3); • 3) hepatocellular ballooning (0-2); and • 4) liver fibrosis score (0-4), after Sirius red staining.
Liver tissues of each group of animals were taken, and NAS scores were analyzed by hematoxylin-eosin (HE) staining, and liver fibrosis was analyzed by Sirius red staining.
After staining, the NAS scores of the prepared samples were evaluated. In hematoxylin-eosin stained sections, NAS scores were evaluated according to the degree of steatosis, inflammatory cell infiltration and […].
After staining, fibrosis of the liver was additionally evaluated. All sections stained with Sirius Red were scanned by an Aperio VERSA 200 Brightfield & Fluorescenc slice scanner. Two fields were randomly selected under a 5×field of view. The two fields covered 85% of the liver tissue area. Quantitative analysis to calculate the area of fibrosis deposition in the slices was performed.
as §1
After drug treatment for 21 days, animals were euthanatized to collect liver samples for pathological analysis.

[3] = Compound 1 10 and 30 mg/kg vs GFT505 30 mg/kg, qd p.o.
[4] = Compound 1 50 mg/kg qd p.o., 21 days

Molecule | NAS score (FIG. 3B) ([1]; qd p.o.) | ballooning (FIG. 3B) ([1]; qd p.o.) | steatosis, lobular inflammation and hepatocellular ballooning (HE-staining of liver tissue, FIG. 3A) ([1]; qd p.o.) | Kd (Mcl-1) [nM] | fibrosis (Sirius red staining, fibrosis score, FIG. 4A/4B) ([1]; Compound 1 10 and 30 mg/kg qd p.o.) | anti-inflammation effects compared with GFT505 [1, 3] | effects on steatosis compared with GFT505 [1, 3] | fibrosis (Sirius red staining, fibrosis score, FIG. 2A/2B) ([2]; Compound 1 50 mg/kg qd p.o. single agent, in comparison to OCA) | ballooning (NAS score analysis, FIG. 1B) [2, 4] | steatosis (NAS score analysis, FIG. 1B) [2, 4] | steatosis, lobular inflammation and hepatocellular ballooning (HE-staining of liver tissue, FIG. 1A) ([2]; Compound 1 50 mg/kg qd p.o., OCA 30 mg/kg qd p.o., alone or combined, 21 days) | anti-inflammation effect compared with OCA alone ([2]; Compound 1 50 mg/kg vs OCA 30 mg/kg, qd p.o., 21 days) | inflammation (NAS score analysis, FIG. 1B) ([2]; Compound 1 50 mg/kg, OCA 30 mg/kg, qd p.o., 21 days)
CSc1ccc(C(=O)/C=C/c2cc(C)c(OC(C)(C)C(=O)O)c(C)c2)cc1 [GFT505, elafibranor, reference compound] | significantly reduced | completely abolished | alleviated |  |  |  |  |  |  |  |  |  | 
Flu-BID: Fluorescein labeled BID (79-99) peptide, fluorescent probe in FP assay for Mcl-1 |  |  |  | 6.9 ± 0.9 |  |  |  |  |  |  |  |  | 
O=C(NS(=O)(=O)c1ccc(NC[C@H]2COCCO2)c([N+](=O)[O-])c1)c1ccc(N2CCN(CC3=C(c4ccc(Cl)cc4)CC4(CCC4)CC3)CC2)cc1Oc1cnc2[nH]ccc2c1 [Compound 1, (S)-N-((4-(((1,4-dioxan-2-yl)methyl)amino)-3-nitrophenyl)sulfonyl)-2-((1H-pyrrolo[2,3-b]pyridin-5-yl)oxy)-4-(4-((6-(4-chlorophenyl)spiro[3.5]non-6-en-7-yl)methyl)piperazin-1-yl)benzamide] | significantly reduced | completely abolished | alleviated |  | modest alleviation | improved anti-inflammation effects | more modest effects | modest effect | modest effects | reduced | alleviated | better anti-inflammation effect than OCA alone | reduced
